Common to all, as to format: physicochemical
A short description of series [1]: Kinetic measurements of metal uptake into emulsion (UV-Vis). As to conditions: emulsion from example 4. Here is the method: FIG. 15. Time course of metalation of FETRIS nanoemulsion with Fe^3+. Shown is the metalation of emulsion B (70 μM pAn-FDK and 10 μM Fe^3+, 8 mM HCl, pH 2.1). A single exponential fit yields kobs=0.69±0.10 min^−1
Strong absorbance of aromatic diketone and its complexes permits facile kinetic investigation of metalation rates. In atypical measurement, emulsion from example 4 was diluted to 70 uM diketone (excess ligand, modeling radiolabeling conditions) into a solution of chosen pH and treated with 10 uM metal cations of relevance to medical imaging, including Fe^3+ (MRI), Cu^2+ (PET), Ga^3+ (PET, SPECT), Sc^3+ (PET), and In^3+ (SPECT). In all cases, UV-Vis spectral changes indicative of metal uptake into the fluorous phase were detected, proportional in magnitude to the amount of metal. For some metals, kinetic analysis was performed. The reaction time course fit well to a pseudo-first-order process with rate constant kobs (Table 4).

Series [2] can be described thus: 19F relaxometry of organic solutions containing paramagnetic dpm complexes. As to conditions: 50 mM complexes in 1:1 v/v PhCF3:acetone-d6, 9.4 T. How it is done:
FIG. 10. ^19F relaxometry of organic solutions containing paramagnetic complexes. Relaxation rates of the CF3 group were measured in the presence of 50 mM tris-(dipivaloylmethanato) complexes Fe(dpm)3 (left) and Gd(dpm)3 (right) in 1:1 v/v PhCF3:acetone-d6 at 9.4 T in a sealed 5 mm NMR tubes. […] Solid lines are guide for the eye. While monomeric Fe(dpm)3 was highly soluble in PhCF3 alone, polymeric Gd(dpm)3 dissolved only in the presence of Lewis basic solvent acetone-d6. […] The observed ratio between R1(Gd) and R1(Fe) was 1.72-1.77, consistent with the expected 1.8-fold difference due to the S(S+1) term in Eq. S, curtailed by a slight increase in the distance of minimal approach due to the larger size of Gd.
To highlight the critical effect of viscosity on relaxation rates, we measured PRE caused by different metal ions in non-viscous organic solutions containing trifluorotoluene (PhCF3) and iron or gadolinium chelates of dipivaloylmethane, Fe(dpm)3 and Gd(dpm)3. Under these conditions, gadolinium provided higher R1 than iron, as expected from the greater spin of Gd^3+. […] In contrast, the divergent temperature dependence of R1 and R2 in FETRIS nanoemulsion (FIG. 3D) is indicative of slow molecular motion in the fluorous phase.

Series [3] is described as follows: Small fluorinated diketones: relaxation enhancement and stability under EDTA competition and cell labeling. As to conditions: metalated small fluorinated diketones. From the text: It may be necessary for sufficient stability to use fluorinated diketones with heavily fluorinated substituents that are well-miscible with other fluorinated agents known in the art to be useful for ^19F MRI.

The nature of series [4]: 19F relaxometry of PFPE nanoemulsion doped with H-fod and metal chloride. As to conditions: 9.4 T. From the text: FIG. 1. Comparison of iron and gadolinium diketonates (H-fod) as ^19F relaxation agents for PFPE. […] R1 and R2 values are reported for the main PFPE peak at −91.4 ppm.
FIG. 11. ^19F relaxometry of PFPE with metalated small diketones. PFPE nanoemulsion was doped in the fluorous phase with small fluorinated diketones H-fod and H-hfp. […] The left panels display broad ^19F NMR signals of CF2 groups of H-fod and H-hfp observed in the absence of metals indicating poor solubility of the ligands in the fluorous phase. […] The right panel show the time course of metalation of PFPE+H-fod nanoemulsion measured by ^19F relaxometry. R1 and R2 were measured for main PFPE peak at −91 ppm at different time points. The solid lines are guides for the eye. The appearance of orange color of Fe(fod)3 correlated with an increase in relaxation rates. Metalation of PFPE emulsions doped with H-fod with Fe^3+ was several orders of magnitude slower than metalation of emulsions containing pAn-FDK (FIG. 15).
Initially, the results of the PRE modeling [Example 2 and FIG. 9] using small molecules were tested. Fluorinated β-diketone H-fod (FIG. 1) was chosen as starting point. […] Addition of 0.7 mM FeCl3 led to the slow formation of orange-colored Fe(fod)3 and a commensurate increase in R1 from 2.3 to 27.0 s^−1 and in R2 from 4.0 to 85.6 s^−1 (at 9.4 T) of the major PFPE resonance (−91.4 ppm) by 24 hours (FIG. 11). With GdCl3, lower R1 (12.8 s^−1) and higher R2 (285 s^−1) values were obtained.

Where [5] appears, read: final [M^3+] 10 uM, [ligand] 70 uM, pH 2.1 (8 mM HCl).

As to `[Cl][Fe]([Cl])[Cl]` [FeCl3], the kobs in series [1] (final [M^3+] 5 uM, [ligand] 70 uM, pH 2.1 (8 mM HCl)) is 0.79 min⁻¹; in series [1] (setting [5]) it was 0.70 min⁻¹.
`[Cl][Ga]([Cl])[Cl]` [GaCl3] yielded a kobs in series [1] (setting [5]) of 0.043 min⁻¹.
Turning to `CC(C)(C)C(=O)C=C(O)C(C)(C)C.CC(C)(C)C(=O)C=C(O)C(C)(C)C.CC(C)(C)C(=O)C=C(O)C(C)(C)C.[Gd]` [Gd(dpm)3], in series [2], the “ratio between R1(Gd) and R1(Fe)” value was 1.72-1.77.
Regarding `O=C(/C=C(\O)c1ccccc1)C(F)F` [H-bda], in series [3], the enhancing relaxation result is “highly effective”; the “stability under the conditions of EDTA competition and cell labeling” value (“stability under the conditions” below) was “not stable enough”.
As for `O=C(CC(=O)C(F)(F)F)c1ccccc1` [H-bta], in series [3], the enhancing relaxation result was “highly effective”; the “stability under the conditions” value was “not stable enough”.
`CC(C)(C)/C(O)=C/C(=O)C(F)(F)C(F)(F)C(F)(F)F` [H-fod]: in series [3], the enhancing relaxation result is “highly effective”; the “stability under the conditions” value was “not stable enough”. Also, in series [4] (PFPE nanoemulsion + 2.8 mM H-fod + 0.7 mM FeCl3, by 24 hours), the “R1 of major PFPE resonance (−91.4 ppm)” value was determined as 27.0 s⁻¹. The “R1 of major PFPE resonance” value in series [4] (PFPE nanoemulsion + 2.8 mM H-fod with GdCl3) amounted to 12.8 s⁻¹. The “R1 of major PFPE resonance (−91.4 ppm)” value in series [4] (PFPE nanoemulsion + 2.8 mM H-fod, before metal addition) came to 2.3 s⁻¹.
On to `C/C(O)=C/C(=O)C(F)(F)C(F)(F)C(F)(F)F` [H-hhd], for which, in series [3], the enhancing relaxation result is recorded as “highly effective”; the “stability under the conditions” value is listed as “not stable enough”.
Taken in the same sequence, the figures for `C/C(O)=C/C(=O)C(F)(F)C(F)(F)C(F)(F)C(F)(F)C(F)(F)C(F)(F)F` [H-tdd] were “highly effective” and “not stable enough”.
The matching figures for `O=C(CC(=O)C(F)(F)F)c1cccs1` [H-tta]: “highly effective” and “not stable enough”.
For `[Cl-].[Cl-].[Cl-].[In+3]` [InCl3], the kobs is more than 10 min⁻¹ in series [1] (final [M^3+] 2 uM, [ligand] 14 uM, pH ~5 (unbuffered H2O)) and 0.0322 min⁻¹ in series [1] (final [M^3+] 10 uM, [ligand] 70 uM, pH 7.4 HEPES).

These data come from patent US11406721B2, “Compositions and methods for imaging cell populations” (The Regents of the University of California, priority 2016, dated 2022).
